What was measured:
Canis familiaris [1] = test: Inhibition of gastric acid secretion (cumulative 75 min) in the dog fistula preparation was measured as acid output, after intragastric administration of 10 ug/kg; format: functional, Canis lupus familiaris, Stomach
Canis familiaris [2] = test: Inhibition of gastric acid secretion (cumulative 75 min) in the dog fistula preparation was measured as total volume, after intragastric administration of 10 ug/kg; format: functional, Canis lupus familiaris, Stomach

Compound | Acid output (Canis familiaris [1]) | Volume (Canis familiaris [2])
CCCCC(C)(O)C/C=C/C1[C@H](O)CC(=O)[C@@H]1CCCCCCC(=O)CO (some centres undefined) | 6.9 m equiv [H+] l-1 | 59 mL
CCCCC(C)(O)C/C=C/C1[C@H](O)CC(=O)[C@@H]1C/C=C/CCCC(=O)CO (some centres undefined) | 7.5 m equiv [H+] l-1 | 76 mL

— ChEMBL document CHEMBL1121467, “Prostaglandins and congeners. 25. Inhibition of gastric acid secretion. Replacement of the carboxylate moiety of a prostaglandin with a hydroxymethylketo functional group” (1980)
